Tests used:
[1] = molecular target: T1, Alpha-1B adrenergic receptor (Rattus norvegicus, UniProt P15823); test: DRUGMATRIX: Alpha-1B adrenergic receptor radioligand binding (ligand: prazosin); type: cell membranes, Wistar, Liver, Membrane; details: Not Active = under 50% inhibition at 10 µM
T1 sequence (P15823 whole entry): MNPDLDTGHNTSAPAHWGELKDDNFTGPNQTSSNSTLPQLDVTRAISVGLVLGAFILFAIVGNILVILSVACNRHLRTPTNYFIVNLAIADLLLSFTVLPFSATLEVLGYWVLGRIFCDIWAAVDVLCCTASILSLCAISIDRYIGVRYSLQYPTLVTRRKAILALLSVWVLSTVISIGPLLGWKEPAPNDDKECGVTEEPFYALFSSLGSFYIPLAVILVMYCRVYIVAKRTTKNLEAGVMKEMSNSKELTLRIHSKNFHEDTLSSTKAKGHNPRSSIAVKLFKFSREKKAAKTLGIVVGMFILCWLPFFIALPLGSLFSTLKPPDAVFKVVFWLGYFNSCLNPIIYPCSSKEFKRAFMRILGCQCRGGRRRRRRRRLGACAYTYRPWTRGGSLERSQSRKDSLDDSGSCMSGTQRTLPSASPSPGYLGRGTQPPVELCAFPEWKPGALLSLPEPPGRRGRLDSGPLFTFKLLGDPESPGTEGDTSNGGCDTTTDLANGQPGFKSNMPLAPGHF

Cytochrome P450 2E1 = Cytochrome P450 2E1 (Homo sapiens, UniProt P05181); details: bti-tn-5b1-4; also: in other assays of this panel Not Active means under 50% inhibition at 10 µM
Cytochrome P450 2E1, sequence (P05181 whole entry): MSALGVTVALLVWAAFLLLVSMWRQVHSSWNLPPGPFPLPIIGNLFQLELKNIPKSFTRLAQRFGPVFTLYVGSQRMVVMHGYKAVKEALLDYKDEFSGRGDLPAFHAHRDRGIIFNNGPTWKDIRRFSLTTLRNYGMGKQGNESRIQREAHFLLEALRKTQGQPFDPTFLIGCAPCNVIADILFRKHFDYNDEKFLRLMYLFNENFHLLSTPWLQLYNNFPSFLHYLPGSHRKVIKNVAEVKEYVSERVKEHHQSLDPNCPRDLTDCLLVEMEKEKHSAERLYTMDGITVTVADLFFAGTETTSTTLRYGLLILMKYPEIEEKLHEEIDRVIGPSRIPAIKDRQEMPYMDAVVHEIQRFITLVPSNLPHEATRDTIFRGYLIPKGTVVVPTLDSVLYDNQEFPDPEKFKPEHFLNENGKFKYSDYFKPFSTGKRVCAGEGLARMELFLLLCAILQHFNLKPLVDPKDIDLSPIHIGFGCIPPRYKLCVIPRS

[2] = molecular target: Mitogen-activated protein kinase 3 (Homo sapiens, UniProt P27361); test: DRUGMATRIX: Protein Serine/Threonine Kinase, ERK1 enzyme inhibition (substrate: Myelin Basic Protein); design: species or system Escherichia coli; details: Not Active = under 50% inhibition at 10 µM
Mitogen-activated protein kinase 3, sequence (P27361 whole entry): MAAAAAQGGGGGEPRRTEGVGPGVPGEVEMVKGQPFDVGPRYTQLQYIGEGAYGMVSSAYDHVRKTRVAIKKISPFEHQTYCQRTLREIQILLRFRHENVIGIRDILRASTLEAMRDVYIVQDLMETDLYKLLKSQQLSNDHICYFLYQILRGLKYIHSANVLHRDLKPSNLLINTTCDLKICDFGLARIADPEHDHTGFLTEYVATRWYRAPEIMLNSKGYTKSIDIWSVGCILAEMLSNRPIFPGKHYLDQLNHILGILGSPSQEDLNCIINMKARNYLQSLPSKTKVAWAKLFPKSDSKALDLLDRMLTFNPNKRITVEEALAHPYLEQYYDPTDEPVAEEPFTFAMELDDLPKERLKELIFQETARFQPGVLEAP

[3] = molecular target: 5-hydroxytryptamine receptor 6 (Homo sapiens, UniProt P50406); type: cell membranes, HeLa, Membrane; details: hela; also: in other assays of this panel Not Active means under 50% inhibition at 10 µM
5-hydroxytryptamine receptor 6, sequence (P50406 whole entry): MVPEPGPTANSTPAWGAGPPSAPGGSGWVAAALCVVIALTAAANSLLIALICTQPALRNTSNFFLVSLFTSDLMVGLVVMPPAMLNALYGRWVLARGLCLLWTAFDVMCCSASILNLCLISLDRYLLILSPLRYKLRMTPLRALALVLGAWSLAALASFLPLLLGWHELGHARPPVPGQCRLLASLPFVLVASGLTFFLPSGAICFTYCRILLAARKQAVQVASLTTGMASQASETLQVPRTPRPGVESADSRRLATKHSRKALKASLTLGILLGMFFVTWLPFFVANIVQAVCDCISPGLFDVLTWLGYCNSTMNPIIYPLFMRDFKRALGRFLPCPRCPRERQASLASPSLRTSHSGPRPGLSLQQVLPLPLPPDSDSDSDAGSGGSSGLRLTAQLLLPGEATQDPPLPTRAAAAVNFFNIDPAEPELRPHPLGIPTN

Melanocortin receptor 3 = Melanocortin receptor 3 (Homo sapiens, UniProt P41968); type: cell membranes, HEK293, Membrane; details: hek293; also: in other assays of this panel Not Active means under 50% inhibition at 10 µM
Melanocortin receptor 3, sequence (P41968 whole entry): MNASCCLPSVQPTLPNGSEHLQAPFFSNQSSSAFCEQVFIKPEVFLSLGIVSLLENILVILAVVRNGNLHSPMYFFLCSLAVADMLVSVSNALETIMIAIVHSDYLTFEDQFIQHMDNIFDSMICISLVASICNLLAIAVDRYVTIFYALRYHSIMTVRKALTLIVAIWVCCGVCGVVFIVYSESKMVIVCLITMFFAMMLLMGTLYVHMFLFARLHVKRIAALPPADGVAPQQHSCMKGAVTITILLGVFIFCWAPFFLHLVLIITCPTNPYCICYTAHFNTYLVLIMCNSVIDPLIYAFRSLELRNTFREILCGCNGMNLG

[4] = DRUGMATRIX: GABAA, Flunitrazepam, Central radioligand binding (ligand: [3H] Flunitrazepam); type: cell membranes, Rattus norvegicus, Wistar, Brain, Membrane; details: Not Active = under 50% inhibition at 10 µM
Thromboxane-A synthase = molecular target: T2, Thromboxane-A synthase (Homo sapiens, UniProt P24557); test: biochemical; type: tissue-based, Platelet; details: platelet;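 also: enzyme inhibition assay with PGH2 supplied as substrate; in other assays of this panel Not Active means under 50% inhibition at 10 µM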
T2 sequence (P24557 whole entry): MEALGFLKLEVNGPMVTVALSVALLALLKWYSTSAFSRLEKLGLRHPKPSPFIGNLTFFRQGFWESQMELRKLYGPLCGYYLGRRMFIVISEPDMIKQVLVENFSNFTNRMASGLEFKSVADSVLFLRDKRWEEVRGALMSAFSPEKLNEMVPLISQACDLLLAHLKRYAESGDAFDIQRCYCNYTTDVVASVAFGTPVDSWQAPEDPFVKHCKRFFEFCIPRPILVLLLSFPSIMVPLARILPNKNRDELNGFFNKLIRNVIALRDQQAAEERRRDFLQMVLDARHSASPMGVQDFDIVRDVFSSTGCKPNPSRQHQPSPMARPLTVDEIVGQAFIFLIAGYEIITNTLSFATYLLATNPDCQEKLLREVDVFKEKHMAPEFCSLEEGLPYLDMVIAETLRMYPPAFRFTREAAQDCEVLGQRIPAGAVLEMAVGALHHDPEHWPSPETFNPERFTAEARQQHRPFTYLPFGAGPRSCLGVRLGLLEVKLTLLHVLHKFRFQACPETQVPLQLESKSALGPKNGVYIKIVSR

c1ccc(Nc2ccc(Nc3ccccc3)cc2)cc1
Not Active: IC50 [1] | IC50 (Cytochrome P450 2E1) | Ki (Cytochrome P450 2E1) | IC50 [2] | IC50 [3] | IC50 (Melanocortin receptor 3) | IC50 [4] | Ki [4] | IC50 (Thromboxane-A synthase)

COc1cc2c3cc1Oc1cc(ccc1O)C[C@@H]1c4c(cc(OC)c(O)c4Oc4ccc(cc4)C[C@@H]3N(C)CC2)CC[N+]1(C)C.[Cl-]
Not Active: IC50 [1] | IC50 (Cytochrome P450 2E1) | Ki (Cytochrome P450 2E1) | IC50 [2] | IC50 [3] | IC50 (Melanocortin receptor 3) | IC50 [4] | Ki [4] | IC50 (Thromboxane-A synthase)

O=C1CC[C@@H](N2C(=O)c3ccccc3C2=O)C(=O)N1
Not Active: IC50 [1] | IC50 (Cytochrome P450 2E1) | Ki (Cytochrome P450 2E1) | IC50 [2] | IC50 [3] | IC50 (Melanocortin receptor 3) | IC50 [4] | Ki [4] | IC50 (Thromboxane-A synthase)

Cc1onc(O)c1CC(N)C(=O)O (racemic) [(R,S)-AMPA]
Not Active: IC50 [1] | IC50 (Cytochrome P450 2E1) | Ki (Cytochrome P450 2E1) | IC50 [2] | IC50 [3] | IC50 (Melanocortin receptor 3) | IC50 [4] | Ki [4] | IC50 (Thromboxane-A synthase)

Cc1ccc2cc3c(ccc4ccccc43)c3c2c1CC3 [3-METHYLCHOLANTHRENE]
Not Active: IC50 [1] | IC50 (Cytochrome P450 2E1) | Ki (Cytochrome P450 2E1) | IC50 [2] | IC50 [3] | IC50 (Melanocortin receptor 3) | IC50 [4] | Ki [4] | IC50 (Thromboxane-A synthase)

CC[C@@]1(O)C[C@H](O[C@H]2C[C@H](N(C)C)[C@H](O[C@H]3C[C@H](O)[C@H](O[C@H]4CCC(=O)[C@H](C)O4)[C@H](C)O3)[C@H](C)O2)c2c(cc3c(c2O)C(=O)c2c(O)cccc2C3=O)[C@H]1C(=O)OC [ACLARUBICIN]
Not Active: IC50 [1] | IC50 (Cytochrome P450 2E1) | Ki (Cytochrome P450 2E1) | IC50 [2] | IC50 [3] | IC50 (Melanocortin receptor 3) | IC50 [4] | Ki [4] | IC50 (Thromboxane-A synthase)

Nc1nc2c(ncn2COCCO)c(=O)[nH]1 [ACYCLOVIR]
Not Active: IC50 [1] | IC50 (Cytochrome P450 2E1) | Ki (Cytochrome P450 2E1) | IC50 [2] | IC50 [3] | IC50 (Melanocortin receptor 3) | IC50 [4] | Ki [4] | IC50 (Thromboxane-A synthase)

Cc1c(C)c2c(c(C)c1O)CC[C@@](C)(CCC[C@H](C)CCC[C@H](C)CCCC(C)C)O2 [ALPHA-TOCOPHEROL]
Not Active: IC50 [1] | IC50 (Cytochrome P450 2E1) | Ki (Cytochrome P450 2E1) | IC50 [2] | IC50 [3] | IC50 (Melanocortin receptor 3) | IC50 [4] | Ki [4] | IC50 (Thromboxane-A synthase)

NCCCCCC(=O)O [AMINOCAPROIC ACID]
Not Active: IC50 [1] | IC50 (Cytochrome P450 2E1) | Ki (Cytochrome P450 2E1) | IC50 [2] | IC50 [3] | IC50 (Melanocortin receptor 3) | IC50 [4] | Ki [4] | IC50 (Thromboxane-A synthase)

CCC1(c2ccc(N)cc2)CCC(=O)NC1=O (configuration not stated) [AMINOGLUTETHIMIDE]
Not Active: IC50 [1] | IC50 (Cytochrome P450 2E1) | Ki (Cytochrome P450 2E1) | IC50 [2] | IC50 [3] | IC50 (Melanocortin receptor 3) | IC50 [4] | Ki [4] | IC50 (Thromboxane-A synthase)

Cc1ccc(/N=C/N(C)/C=N/c2ccc(C)cc2C)c(C)c1 [AMITRAZ]
Not Active: IC50 [1] | IC50 (Cytochrome P450 2E1) | Ki (Cytochrome P450 2E1) | IC50 [2] | IC50 [3] | IC50 (Melanocortin receptor 3) | IC50 [4] | Ki [4] | IC50 (Thromboxane-A synthase)

COc1ccc(C[C@H]2NC[C@H](O)[C@H]2OC(C)=O)cc1 [ANISOMYCIN]
Not Active: IC50 [1] | Ki [1] | IC50 (Cytochrome P450 2E1) | Ki (Cytochrome P450 2E1) | IC50 [2] | Ki [2] | IC50 [3] | Ki [3] | IC50 (Melanocortin receptor 3) | Ki (Melanocortin receptor 3) | IC50 [4] | Ki [4] | IC50 (Thromboxane-A synthase) | Ki (Thromboxane-A synthase)

Nc1ncn([C@@H]2O[C@H](CO)[C@@H](O)[C@H]2O)c(=O)n1 [AZACITIDINE]
Not Active: IC50 [1] | IC50 (Cytochrome P450 2E1) | Ki (Cytochrome P450 2E1) | IC50 [2] | IC50 [3] | IC50 (Melanocortin receptor 3) | IC50 [4] | Ki [4] | IC50 (Thromboxane-A synthase)

CN(C)C(=O)Oc1cc(OC(=O)N(C)C)cc(C(O)CNC(C)(C)C)c1 (configuration not stated) [BAMBUTEROL]
Not Active: IC50 [1] | IC50 (Cytochrome P450 2E1) | Ki (Cytochrome P450 2E1) | IC50 [2] | IC50 [3] | IC50 (Melanocortin receptor 3) | IC50 [4] | Ki [4] | IC50 (Thromboxane-A synthase)

c1ccc2c(c1)c1cccc3ccc4cccc2c4c31 [BENZO[E]PYRENE]
Not Active: IC50 [1] | IC50 (Cytochrome P450 2E1) | Ki (Cytochrome P450 2E1) | IC50 [2] | IC50 [3] | IC50 (Melanocortin receptor 3) | IC50 [4] | Ki [4] | IC50 (Thromboxane-A synthase)

CNCCc1ccccn1 [BETAHISTINE]
Not Active: IC50 [1] | IC50 (Cytochrome P450 2E1) | Ki (Cytochrome P450 2E1) | IC50 [2] | IC50 [3] | IC50 (Melanocortin receptor 3) | IC50 [4] | Ki [4] | IC50 (Thromboxane-A synthase)

CC(C)C(Br)C(=O)NC(N)=O (configuration not stated) [BROMISOVALUM]
Not Active: IC50 [1] | IC50 (Cytochrome P450 2E1) | Ki (Cytochrome P450 2E1) | IC50 [2] | IC50 [3] | IC50 (Melanocortin receptor 3) | IC50 [4] | Ki [4] | IC50 (Thromboxane-A synthase)

CCCC1O[C@@H]2C[C@H]3[C@@H]4CCC5=CC(=O)C=C[C@]5(C)[C@H]4[C@@H](O)C[C@]3(C)[C@]2(C(=O)CO)O1 (some centres not stated) [BUDESONIDE]
Not Active: IC50 [1] | IC50 (Cytochrome P450 2E1) | Ki (Cytochrome P450 2E1) | IC50 [2] | IC50 [3] | IC50 (Melanocortin receptor 3) | IC50 [4] | Ki [4] | IC50 (Thromboxane-A synthase)

From ChEMBL document CHEMBL1909046, “DrugMatrix in vitro pharmacology data”
